In patent US20250387410A1, “TREATMENT OF ANTI-VEGF REFRACTORY OPHTHALMIC RETINAL EYE CONDITIONS” (Eye Co Pty Ltd., priority 2022, published 2025):
“Also recorded” adds a separate entry of the source.

Tests used:
[1] = system: Il-1b-stimulated MIO-M1 cells; assay: Co-incubation with selective receptor antagonists in Il-1b-stimulated MIO-M1 cells; format: cell-based, human; conditions: co-incubation with FA + IL-1β, compared to Il1b and FA alone
Procedure: FIG. 3 Contribution of glucocorticoid and mineralocorticoid receptor signalling to the anti-inflammatory effect of FA in vitro.
IL-1β and TNF-α were administered to MIO-M1 cells to initiate an inflammatory response in order to test the anti-inflammatory properties of the selected corticosteroids. MIO-M1 cells were grown to a cell density of 50,000 cells per well in a 24 well plate using growth media and foetal bovine serum as described (Section 2.1.1). MIO-M1 cells were challenged with either 1 ng/μl of IL-1β or TNF-α (R&D Systems, MN, USA). Experimental wells were treated with either 1 μg/μl FA, TA or Dexamethasone. Twelve hours post addition, growth medium was removed from each well and replaced with 860 μl of TRIzol (Thermo Fisher Scientific, MA, USA), agitated approximately 20 times and then placed in a clean 1.5 ml Eppendorf tube to extract ribonucleic acid (RNA).
Following purification of RNA, cDNA was synthesized using the Bioline Tetro kit (Bioline, Australia) as per the manufacturer's instructions. Quantitative Real Time Polymerase Chain Reaction (QRT-PCR) was undertaken to profile gene expression changes in animal and cell culture samples. TaqMan hydrolysis probes (Applied Biosystems, USA) and Gene Expression Master Mix (Applied Biosystems, USA) were used. A clear 384 well plate (Applied Biosystems, USA) was used with each biological sample plated in duplicate. A reaction mixture per sample was set up and included 0.5 μl cDNA, 4 μl Rnase Free Water, 5 μl Gene Expression Master Mix and 0.5 μl Taqman Primer Probe (Thermo Fisher Scientific), as listed in Table 2.5. The amplification of each sample was undertaken using a QuantStudio 12K Flex QRT-PCR machine (Applied Biosystems, USA). GAPDH was used as the reference gene using the comparative cycle threshold (Ct) method (ΔΔCt), as it is known not to change expression following retinal photo-oxidative damage. Data was analysed using the QuantStudio 12K Flex Software (Applied Biosystems, USA).

ARPE19 cells = assay: MTT assay, cell viability of ARPE19 cells; format: cell-based, human
Source text: (§1) The immortalised retinal cells used were as follows: MIO-M1 cells (Muller cell-derived; Müller 1 Moorefields, Institute of Ophthalmology, Dr A. Limb, Institute of Ophthalmology, University College, UK); ARPE19 (RPE-derived; ATCC CRL-2302, American Tissue Culture Collection, VA, USA); and 661W cells (photoreceptor-like derived; kindly gifted by Dr Muayyad R. Al-Ubaidi, Department of Cell Biology, University of Oklahoma Health Sciences Centre, Oklahoma City, OK, USA). Cells were authenticated and validated from Cell Bank Australia.
(§2) The immortalised retinal cell lines MIO-M1, 661W and ARPE19 were used to undertake the MTT assay to assess cell metabolic activity, based on the cell's availability of NAPDH. Treatments included exposure to one of FA (10-0.01 μg/μl, provided by Professor Ben Boyd, Monash University, Australia), TA (10-0.01 μg/p, Honeywell, USA) and Dexamethasone (10-0.0001 μg/μl, Sigma-Aldrich, MO, USA). All corticosteroids used in vitro were dissolved in 20% dimethyl sulfoxide (DMSO) (Sigma-Aldrich, MO, USA) and ultrapure endotoxin 0.1M PBS (Thermo Fisher Scientific, MA, USA). At the 12-hour time point following addition of the corticosteroid, 10p of MTT reagent (Roche, Switzerland) was added to each well. To protect against light, plates were wrapped in foil and stored in the dark at 37° C. for 4 hours at 5.0% CO2. Cells were monitored using a bright field Zeiss Axiovert 200 inverted microscope (Carl Zeiss Meditec, Dublin, CA. USA) for formation of insoluble purple formazan precipitate crystals in viable cells. Subsequently 100p of MTT solubilisation solution was added and once again incubated in darkness at 37° C., 5.0% CO2 for 24 hours. Quantification of the MTT assay was performed by measuring the absorbance at 570 nm using Tecan Infinite® 200 PRO (Tecan, Mannedorf, Switzerland).

[2] = system: C57BL/6J mice, photo-oxidative damage (PD); assay: Photo-oxidative damage (PD) model of retinal degeneration, intravitreal injection; format: in vivo, mouse
Source text: All experiments conducted were in accordance with the ARVO Statement for Use of Animals in Ophthalmic and Vision Research, and with approval from the ANU Animal Experimentation Ethics Committee (AEEC, protocol #A2014/56). C57BL/6J mice aged 60 post-natal days were used in this study. Animals were born, reared and held under dim light conditions (5 lux) prior to photo-oxidative damage.
In vivo cross-sectional and fundus images of the mouse retina were acquired using Optical Coherence Tomography (OCT).
Intravitreal injections were performed on C57BL/6J mice aged 60 post-natal days. Treatments included exposure to FA or TA dissolved in Suspension (comprised of 0.5% w/v carboxymethyl cellulose and 0.4% v/v Tween 80). The final concentration of drug in the vitreous chamber is estimated to be as 1 mg/ml.
Age-matched C57BL/6J mice (60 post-natal days) were exposed to continuous 100K lux white LED light for 5 days with access to food and water ad libitum. During this time, 1% atropine sulphate (Minims 1% atropine sulphate eye drops; Bausch and Lomb, USA) was administered to both eyes twice daily to dilate the pupils. Animals were subsequently euthanised with carbon dioxide (CO2).
Electroretinography (ERG) was used to assess the retinal function response of rodents to full-field flash stimuli under scotopic conditions. Dim-reared control and photo-oxidative damaged animals were used, using known methods.
Animals were dark-adapted overnight before the commencement of ERG experiments. Animals were anaesthetised as previously described, and all retinal recordings were undertaken in a dark room with minimal red light source.
Terminal deoxynucleotidyl transferase (Tdt) dUTP nick end labelling (TUNEL) is an established technique used to detect apoptotic and necrotic cells.
The retina was evenly divided into 8 quadrants. Each quadrant was viewed using a confocal microscope (LSM 5, Zeiss, Germany) and TUNEL^+ and IBA1^+ cells were identified and counted. Data were graphed and analysed using Prism 6 software (GraphPad Software, CA, USA).

661W cells = assay: MTT assay, cell viability of 661W cells; format: cell-based, human
Source text: as §1, §2

MIO-M1 cells = assay: MTT assay, cell viability of MIO-M1 cells; format: cell-based, human
Source text: as §1, §2

[3] = 10-0.01 μg/μl, 12 h, compared to DMSO-only group
[4] = 10 ug/uL, compared to DMSO-only group

In the case of `N#Cc1ccc([C@H]2CCCC[C@H]2O)cc1C(F)(F)F` [PF998425], the “effect of receptor antagonist on FA-mediated suppression of Ccl2, Il-6, and Il-8” value (shortened to “effect of receptor antagonist”) [1] is reported as “did not alter”.
`CC1(C)O[C@@H]2C[C@H]3[C@@H]4CCC5=CC(=O)C=C[C@]5(C)[C@@]4(F)[C@@H](O)C[C@]3(C)[C@]2(C(=O)CO)O1` [TA, triamcinolone acetonide] was tested, and the “viability of ARPE19 cells at 1 μg/μl” value (ARPE19 cells; 1 μg/μl) was “does not significantly alter cell viability”, the “viability of ARPE-19 cells (MTT assay)” value (ARPE19 cells; [3]) was “do not induce toxicity; also recorded: did not have significant effect” and the “a-wave and b-wave ERG responses” value ([2]; 5 days PD, intravitreal, scotopic, versus controls) was “indistinguishable from PD controls/untreated animals”. The “photoreceptor survival in PD” value ([2]; intravitreal injection, mice) was “no significant effect”, the “viability of 661W cells at 1 μg/μl” value (661W cells; 1 μg/μl) was “does not significantly alter cell viability” and the “viability of 661W cells at the highest concentration” value (661W cells; [4]) was “slight reduction”. For the same compound, the “viability of 661W cells (MTT assay)” value (661W cells; [3]) was “do not induce toxicity; also recorded: did not have significant effect”, the “viability of MIO-M1 cells at 1 μg/μl” value (MIO-M1 cells; 1 μg/μl) was “does not significantly alter cell viability” and the “viability of MIO-M1 cells at the highest concentration” value (MIO-M1 cells; [4]) was “slight reduction”. For the same compound, the “viability of MIO-M1 cells (MTT assay)” value (MIO-M1 cells; [3]) was “do not induce toxicity; also recorded: did not have significant effect”.
`CCC[C@@H]1CC2=CC(=O)CC[C@]2(C)[C@H]2CC[C@@]3(C)[C@@H](CC[C@@]3(O)CCC(=O)[O-])[C@H]12.[K+]` [RU28318] was tested, and the “effect of receptor antagonist” value [1] was “did not significantly alter”.
`CC#C[C@]1(O)CC[C@H]2[C@@H]3CCC4=CC(=O)CCC4=C3[C@@H](c3ccc(N(C)C)cc3)C[C@@]21C` [RU486, Mifepristone] was tested, and the “effect of receptor antagonist” value [1] was “negated; also recorded: completely abrogate”.
`C[C@]12CC[C@@H]3c4ccc(O)cc4C[C@@H](CCCCCCCCC[S+]([O-])CCCC(F)(F)C(F)(F)F)[C@H]3[C@@H]1CC[C@@H]2O` (some centres unmarked) [ICI182780] was tested, and the “effect of receptor antagonist” value [1] was “did not alter”.
